The values that follow come from patent publication US20100324303A1, “Use of Tetramic Acid Derivatives for Controlling Animal Pests After Treatment of the Trunk, the Branches, the Influorescences or the Buds” (Bayer CropScience AG, priority 2008, published 2010).

Where two headings read alike, the source gives them in different places.

Common to all, as to format: in vivo
Assay [1] concerns banana flower thrips (Thrips hawaiiensis). Nature of the assay: Flower bud injection on banana trees against banana flower thrips. As to conditions: banana cv. Cavendish, 80 ml injected into flower buds, destruction of population on influorescences and bunches, imidacloprid (100 SL) 0.1 g a.i./l, Example (II) (100 OD) 0.3 g a.i./l; for Activity in % Abbott 3 d: 3 days after treatment; for Activity in % Abbott 91 d: 91 days after treatment. Here is the method: Banana trees cv. “Cavendish” are treated in three replications against banana flower thrips (Thrips hawaiiensis). Here, the active substances Example (II) (100 OD) are tested versus the commercial standard imidacloprid (100 SL) at the application rates specified. The application is carried out by injecting in each case 80 ml of injection solution into the flower buds. In each case three flower buds are treated. The evaluation is effected 3 and 91 days after the treatment by scoring the destruction of the population on the influorescences and bunches.

Assay [2] has as its system California red scale Aonidiella aurantii. Nature of the assay: Stem application by painting on to orange trees against California red scale. The following applies: 205 days after treatment, orange trees cv. Valencia, infestation on the fruits, imidacloprid 2 g a.i./tree, Example (II) (SC 240) 4 g a.i./tree. The method, then: Young orange trees cv. “Valencia” which are approximately 5 years old are treated in three applications against the California red scale Aonidiella aurantii after stem application by painting on the active substances. Here, the active substance (II) (SC 240) is tested versus the commercial standard imidacloprid at the application rates detailed. The evaluation is carried out 205 days after the treatment by scoring the infestation on the fruits.

The test system of assay [3] is pineapple mealybug Dysmicoccus brevipes. Nature of the assay: Pseudostem (and foliar) spray application on banana trees against pineapple mealybug. As to conditions: banana cv. Cavendish, 50 ml on leaves and 50 ml on peeled stem, mealybug on the stem, Banole oil 30 g/l, chlorpyrifos-methyl 0.8 g/l, (II) SC 240 0.3 g/l in tank mix with 0.025% Hoestick. The method, then: Banana trees (growth stage BBCH 1130) cv. “Cavendish” consisting of mother plant and sucker are treated in three replications following foliar treatment against Aspidiotus destructor and against the pineapple mealybug Dysmicoccus brevipes by pseudostem application. To this end, in each case 100 ml of spray solution are applied, in each case 50 ml being sprayed onto the leaves and 50 ml onto the stem. Before the stem application, the outermost stem layer is first peeled off, which is general practice. Here, the active substance (II) (SC 240) is tested in a tank mix along with 0.025% Hoestick (XL 500) versus the commercial standards chlorpyrifos-methyl (500 EC) and liquid paraffin (Banole oil) (EC 600).
The evaluation is carried out 3, 7, 14 and 22 days after the treatment by scoring the destruction of the pineapple mealybug on the stem.

Consider `O=[N+]([O-])NC1=NCCN1Cc1ccc(Cl)nc1` [Imidacloprid, imidacloprid, reference compound], for which, in assay [1], the “Activity in % Abbott 3 d” value is recorded as 98.4 % Abbott and the “Activity in % Abbott 91 d” value is 100 % Abbott. In assay [2], the “Efficacy (% Abbott)” value is 100 % Abbott.
Regarding `CCOC(=O)OC1=C(c2cc(C)ccc2C)C(=O)N[C@]12CC[C@@H](OC)CC2` [Example (II)], the “Activity in % Abbott 3 d” value in assay [1] amounted to 66.7 % Abbott. The “Activity in % Abbott 91 d” value in assay [1] was determined as 100 % Abbott. Moreover, the “Efficacy (% Abbott)” value in assay [2] is listed as 100 % Abbott. For the same compound, the inhibition at 300 µg/mL in assay [3] (SC240, 72 h, 3 days after treatment, read-out: Activity (%) Abbott 3 d) worked out at 81.2%; in assay [3] (SC240, 168 h, 7 days after treatment, read-out: Activity (%) Abbott 7 d) it was 92.3%; in assay [3] (SC240, 336 h, 14 days after treatment, read-out: Activity (%) Abbott 14 d), 96.4%; in assay [3] (SC240, 528 h, 22 days after treatment, read-out: Activity (%) Abbott 22 d), 96.7%.
